Like-named read-outs stand apart in the source and are kept apart here.
Legend:
[1] = test system: 10% dry-yeast suspension-induced fever of rats; experiment: Anti-pyretic activity (dry-yeast induced fever, febril index); type: in vivo, rats (Wistar strain, male); conditions: oral, febril index up to 4 hours after administration, dose not stated
Method: (§1) Next, several tests for determining the pharmacological properties, in that acute toxicity, anti-pyretic activity, analgesic activity and anti-inflammatory activity of the present 1,3,5-substituted biuret compounds of the formula (1) were conducted and the test results are shown in Table (2). In the tests, each compounds to be tested was used as a suspension in 0.25% carboxymethylcellulose solution. Methods for testing are explained as follows:
According to the method reported by Tanabe [Folia Pharmacologia Japonica, Vol. 73, pp. 803 (1977)], the Wistar strain of male rats (150-180 g body weight) were used as test animals. The rats were fasted overnight, and 1 ml/100 g (body weight) of 10% dry-yeast suspension were subcutaneously injected on the back of the rats. Five hours afte the injection, the test compound was administered orally, then the body temperature of the rat was measured time sequences. Anti-pyretic activity of the test compound was determined as the FI (febril index) by integrating pyrogenetic curve up to 4 hours after the administration of the test compound with time, and indicated as inhibitory ratio (%) shown by the following formula, [formula]

[2] = test system: pain reaction of the mouse caused by a clamp; experiment: Analgesic activity, Haffner method; type: in vivo, mice (ddy strain, male); conditions: for Analgesic activity, Haffner method, inhibitory ratio: mice
Method: as §1
According to the modified method reported by Fujimura et al., [Bulletin of the Institute for Chemical Research, Kyoto University, No. 25, pp. 36 (1951)], the ddy strain of male mice (body weight, 20-25 g) were used as test animals. The mice were fasted overnight, 100 mg/kg body weight of the test compound was administered orally, then 45 minutes after the administration, the threshhold amount (1.5-2.5 mg/kg body weight) of morphine hydrochloride was injected subcutaneously. Then 1-hour pain reaction of the mouse caused by a clamp was observed. Analgesic activity of the test compound was calculated as the inhibitory ratio (%). In Table 2, the values in parentheses show the data obtained from the test by using the dosage other than 100 mg/kg body weight. Further, the values indicated with Δ marks show 50% effective dose, ED50 (mg/kg body weight).

ddy strain of male mice = experiment: Acute toxicity (oral, general symptom and death observed for 7 days); type: in vivo; conditions: for Acute toxicity, death number of mice/number of mice tested: 7 days
Method: as §1
The ddy strain of male mice (body weight, 20-25 g) were used as test animals. The mice were fasted overnight and the compound to be tested was administered orally. […] The lethal dose (mg/kg, body weight) of the test compound was determined in connection with the death number of mice/the number of mice tested. In Table 2, the values indicated with Δ marks are 50% lethal dose, LD50 (mg/kg, body weight).

[3] = test system: carrageenin-induced inflammation of the hindpaw of the rat; experiment: Anti-inflammatory activity, acute carrageenin-induced inflammatory test; type: in vivo, rats (Wistar strain, male)
Method: as §1
4. Anti-inflammatory Activity
According to the method of acute carrageenin-induced inflammatory test [Folia Pharmacologia Japonica, Vol. 56, pp. 575 (1960)], the Wistar strain of male rats (body weight, 150-180 g) were used as test animals. The rats were fasted overnight, 100 mg/kg body weight of the test compound was administered orally, then 1 hour after the administration, 0.1 ml of 1% carrageenin solution, as the inflammation inducing agent, was injected subcutaneously to the hindpaw of the rat and the volume of the hindpaw was measured at time sequences. Anti-inflammatory activity of the test compound was calculated as inflammation inhibitory ratio (%) at 3 hours after the injection of inflammation inducing agent.

[4] = test system: acetic acid-induced stretching symptom of mouse; experiment: Analgesic activity, acetic acid-induced stretching method; type: in vivo, mice (ddy strain, male); conditions: read-out: Analgesic activity, acetic acid-induced stretching method, inhibitory ratio
Method: as §1
(1) Acetic acid-induced stretching method
According to the method reported by Koster et.al., [Fed. Proc., Vol. 18, pp. 412 (1959)], the ddy strain of male mice (body weight, 20-25 g) were used as test animals. The mice were fasted overnight, 100 mg/kg body weight of the test compound was administered orally, then 1 hour after the administration, 0.2 ml of 0.7% acetic acid solution was injected intraperitoneally. The acetic acid-induced stretching symptom of mouse was observed. Analgesic activity of the test compound was calculated as the inhibitory ratio (%). In Table 2, the values in parentheses show the data obtained from the test by using the dosage other than 100 mg/kg body weight. Further, the values indicated with Δ marks show 50% effective dose, ED50 (mg/kg body weight).

[5] = Rattus norvegicus, 100 mg/kg oral, rats, 3 hours after carrageenin, read-out: Anti-inflammatory activity, inflammation inhibitory ratio
[6] = Rattus norvegicus, po, 3 h, read-out: Anti-inflammatory activity, inflammation inhibitory ratio

Row | Molecule | Anti-pyretic activity, inhibitory ratio [1] [%] | Analgesic activity, Haffner method, inhibitory ratio ([2]; 100 mg/kg oral) [%] | inhibition in vivo at 100 mg/kg ([4]; po) [%] | Acute toxicity, death number of mice/number of mice tested (ddy strain of male mice; 2000 mg/kg oral) | inhibition in vivo at 100 mg/kg [3, 5] [%] | Acute toxicity, death number of mice/number of mice tested (ddy strain of male mice; 1000 mg/kg oral) | further results
1 | 1,3-Dimethyl-5-(4-methyl-2-pyridyl)biuret [compound 18] | 60 | 25 | – | – | – | – | Acute toxicity, 50% lethal dose LD50 (ddy strain of male mice; oral, 7 days observation (Δ values)): 1500 mg/kg; Anti-inflammatory activity, inflammation inhibitory ratio ([3]; 100 mg/kg oral, rats, 3 hours after carrageenin): 20%
2 | CNC(=O)N(C)C(=O)Nc1ccccc1F [Compound No. 4] | 79 | 25 | 37.5 | 0/4 | 41 | – | –
3 | CNC(=O)N(C)C(=O)Nc1ccccc1Cl [Compound No. 5, 1,3-Dimethyl-5-(2-chlorophenyl)biuret] | 28 | – | – | 0/4 | – | – | inhibition in vivo at 200 mg/kg ([4]; po): 37.5%; Analgesic activity, Haffner method, inhibitory ratio ([2]; 200 mg/kg oral): 37.5%; inhibition in vivo at 200 mg/kg ([3]; Rattus norvegicus, 200 mg/kg oral, rats, 3 hours after carrageenin, read-out: Anti-inflammatory activity, inflammation inhibitory ratio): 53%
4 | CCCNC(=O)N(C)C(=O)Nc1ccccc1 [Compound No. 41, 1-n-Propyl-3-methyl-5-phenylbiuret] | 65 | 37.5 | 62.5 | 0/4 | 67 | – | –
5 | CC(C)NC(=O)N(C)C(=O)Nc1ccccc1 [Compound No. 43, 1-Isopropyl-3-methyl-5-phenylbiuret] | 38 | 25 | 50 | 0/4 | – | – | inhibition in vivo at 100 mg/kg [3, 6]: 51%
6 | C=CCNC(=O)N(C)C(=O)Nc1ccccc1 [Compound No. 45] | 125 | 12.5 | 50 | 4/4 | – | 2/4 | inhibition in vivo at 100 mg/kg [3, 6]: 59%
7 | CCCCNC(=O)N(C)C(=O)Nc1ccccc1 [Compound No. 47] | 19 | 62.5 | 75 | 0/4 | 27 | – | –
8 | CC(C)CNC(=O)N(C)C(=O)Nc1ccccc1 [Compound No. 49, 1-Isobutyl-3-methyl-5-phenylbiuret] | 55 | – | – | 0/4 | 57 | – | inhibition in vivo at 40 mg/kg ([4]; po): 50%; ED50 ([2]; Mus musculus, oral, mice (Δ values; range in parentheses), read-out: Analgesic activity, Haffner method, 50% effective dose ED50): 50 mg/kg
9 | CNC(=O)N(C)C(=O)Nc1cc(C)ccn1 [compound 17] | 55 | 25 | – | 3/4 | – | 0/4 | inhibition in vivo at 100 mg/kg ([4]; 100 mg/kg oral, mice): 25%; inhibition in vivo at 100 mg/kg [3, 6]: 33%
10 | CNC(=O)N(C)C(=O)Nc1nccs1 [compound 20] | 112 | 25 | – | – | 46 | 3/4 | inhibition in vivo at 100 mg/kg ([4]; 100 mg/kg oral, mice): 25%
11 | CCNC(=O)N(C)C(=O)Nc1ccc(F)cc1 [compound 32, 1-Ethyl-3-methyl-5-(4-fluorophenyl)biuret] | 63 | 37.5 | – | 4/4 | – | 2/4 | inhibition in vivo at 100 mg/kg ([4]; 100 mg/kg oral, mice): 100%
12 | CCNC(=O)N(C)C(=O)Nc1ccc(N(C)C)cc1 [compound 33, 1-Ethyl-3-methyl-5-(4-dimethylaminophenyl)biuret] | 87 | 25 | 62.5 | 4/4 | – | 0/4 | inhibition in vivo at 100 mg/kg [3, 6]: 30%
13 | CCNC(=O)N(C)C(=O)Nc1ccc(OC)cc1 [compound 35, 1-Ethyl-3-methyl-5-(4-methoxyphenyl)biuret] | 112 | 62.5 | – | 4/4 | 19 | 0/4 | inhibition in vivo at 100 mg/kg ([4]; 100 mg/kg oral, mice): 87.5%
14 | CCNC(=O)N(C)C(=O)Nc1ccc(C)cc1 [compound 38, 1-Ethyl-3-methyl-5-(4-methylphenyl)biuret] | 80 | 25 | – | 3/4 | – | 0/4 | inhibition in vivo at 100 mg/kg ([4]; 100 mg/kg oral, mice): 87.5%
15 | CCNC(=O)N(C)C(=O)Nc1ccc(C)c(C)c1 [compound 39, 1-Ethyl-3-methyl-5-(3,4-dimethylphenyl)biuret] | 8 | 37.5 | 50 | 0/4 | – | – | –
16 | CCC(C)NC(=O)N(C)C(=O)Nc1ccccc1 (centres unmarked) [compound 50, 1-(1-Methylpropyl)-3-methyl-5-phenylbiuret] | 27 | 25 | 62.5 | 0/4 | – | – | inhibition in vivo at 100 mg/kg [3, 6]: 47%
17 | CCCCCNC(=O)N(C)C(=O)Nc1ccccc1 [compound 52, 1-n-Pentyl-3-methyl-5-phenylbiuret] | 38 | 37.5 | 62.5 | 0/4 | – | – | –
